Structures are written as SMILES. pIC50: −log10 of the molar value.

Experiment [1] concerns adenosine uptake into HeLa cells. Nature of the experiment: [3H]Adenosine uptake assay. Type of experiment: cell-based. The note with it: Homo sapiens; accumulation of [3H]adenosine into HeLa cells; concentration range 10 μM to 0.032 nM; read-out: ADU inhibition IC50. The protocol: Compounds are also screened in an adenosine uptake functional cellular assay using the protocol described below:
Adenosine uptake activity was determined by monitoring the accumulation of tritiated adenosine into HeLa cells (ATCC catalog #CCL-2) using a PMT-based radiometric detection instrument. In this assay, the potency (IC50) of each compound was determined from a ten point (1:3 serial dilution; final compound concentration range in assay from 10 μM to 0.032 nM) titration curve using the following outlined procedure. To each well of a 96-well CytoStar-T scintillating microplate (Perkin Elmer Catalog #RPNQ0163), 25 000 HeLa cells in 100 μL of growth medium comprising: Minimum Essential Media (Life Technologies Catalog #11095-080)+10% (v/v) foetal bovine serum (FBS; Sigma Aldrich Catalog #F2442) was added. These cells were incubated overnight at 37° C. in a humidified atmosphere with 5% (v/v) CO2. After this time the growth medium was removed and replaced with 40 μL assay medium comprising: Hanks balanced salts solution (HBSS; Thermo Fisher Catalog # SH30268.01)+5% (v/v) FBS. Compound stock solutions in DMSO were diluted in assay medium to 2.5× final compound concentration maintaining a constant DMSO concentration of 0.25% (v/v). 40 μL of compound in assay medium was dispensed into individual wells of the Cytostar-T plates and the plates were incubated for 30 minutes under ambient laboratory conditions. Following this incubation, 20 μL of 500 nM [^3H] adenosine (American Radiolabeled Chemicals Inc. Catalog #ART0287) in assay medium was added and incubated for a further 60 minutes under ambient laboratory conditions. The amount of radiolabel accumulation was then determined using a Perkin Elmer Topcount NXT microplate reader. In brief, HeLa cells adhere to the bottom of the Cytostar-T plate, uptake of [^3H]adenosine into these cells brings the radiolabel into sufficient proximity to excite the scintillant in the base of the plates. These events are captured by single PMT, time-resolved coincidence counting. IC50 values were determined by 4 parameter robust fit of counts per second values vs. (Log10)) compound concentrations.

For experiment [2], the target named is T1, BTK enzyme (recombinant full-length BTK, hBTK) (Homo sapiens, UniProt Q06187).
T1 construct: recombinant protein from baculovirus-transfected S 19 cells: full-length BTK, 6 HIS-tag cleaved; 6 HIS-tag (cleaved yes); made in house
As to the kind of experiment: Btk enzyme activity assay (LANCE TR-FRET). It is filed as biochemical. Conditions: 50 pM hBTK, 25 μM ATP, 60 minute compound and enzyme incubation, concentration range 1 μM to 0.017 nM, read-out: BTK binding IC50.

T1 sequence (Q06187 whole entry): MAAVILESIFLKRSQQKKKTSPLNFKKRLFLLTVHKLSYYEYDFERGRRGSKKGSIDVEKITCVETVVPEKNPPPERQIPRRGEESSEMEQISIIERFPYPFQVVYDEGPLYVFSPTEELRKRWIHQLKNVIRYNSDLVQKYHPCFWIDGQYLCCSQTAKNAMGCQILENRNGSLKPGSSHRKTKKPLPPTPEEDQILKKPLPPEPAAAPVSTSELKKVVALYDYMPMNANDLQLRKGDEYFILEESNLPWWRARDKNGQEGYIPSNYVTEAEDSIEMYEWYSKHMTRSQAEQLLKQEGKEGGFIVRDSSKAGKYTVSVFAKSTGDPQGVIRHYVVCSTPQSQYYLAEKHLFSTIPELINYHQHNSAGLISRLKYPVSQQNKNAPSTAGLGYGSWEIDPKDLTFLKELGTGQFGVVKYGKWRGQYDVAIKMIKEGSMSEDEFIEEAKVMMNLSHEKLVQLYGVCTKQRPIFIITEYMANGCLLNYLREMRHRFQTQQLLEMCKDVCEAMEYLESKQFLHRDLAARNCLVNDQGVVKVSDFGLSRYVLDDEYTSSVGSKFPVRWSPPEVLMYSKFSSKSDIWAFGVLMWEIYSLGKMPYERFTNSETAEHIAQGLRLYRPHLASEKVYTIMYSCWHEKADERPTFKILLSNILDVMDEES

In the case of `CCOc1cc(C(=O)Nc2cc(C(F)(F)F)ccn2)ccc1-c1nc([C@H]2CN(C3CCOCC3)[C@@H](C)CO2)n2c(Cl)cnc(N)c12` [Example 27, 4-{8-amino-5-chloro-3-[(2R,5S)-5-methyl-4-(tetrahydro-2H-pyran-4-yl)morpholin-2-yl]imidazo[1,5-a]pyrazin-1-yl}-3-ethoxy-N-[4-(trifluoromethyl)pyridin-2-yl]benzamide], the pIC50 is 5.72 in experiment [1] and 8.65 in experiment [2].

Consider `COCC(=O)N1C[C@H](c2nc(-c3ccc(C(=O)Nc4cc(C(F)(F)F)ccn4)cc3F)c3c(N)nccn23)OC[C@H]1C` [Example 70, 4-{8-amino-3-[(2R,5R)-4-(methoxyacetyl)-5-methylmorpholin-2-yl]imidazo[1,5-a]pyrazin-1-yl}-3-fluoro-N-[4-(trifluoromethyl)pyridin-2-yl]benzamide], for which the pIC50 in experiment [1] was 6.87; in experiment [2], 7.86.

As for `CCOc1cc(C(=O)Nc2cc(C(F)(F)F)ccn2)ccc1-c1nc([C@@H]2CC[C@H](C)N(C(=O)[C@@H](C)O)C2)n2c(Cl)cnc(N)c12` [Example 111, 4-(8-amino-5-chloro-3-{(3R,6S)-1-[(2R)-2-hydroxypropanoyl]-6-methylpiperidin-3-yl}imidazo[1,5-a]pyrazin-1-yl)-3-ethoxy-N-[4-(trifluoromethyl)pyridin-2-yl]benzamide], the pIC50 is 6.01 in experiment [1] and 9.56 in experiment [2].

Turning to `COc1cc(C(=O)Nc2cc(C(F)(F)F)ccn2)ccc1-c1nc([C@H]2CN(C3COC3)[C@@H](C)CO2)n2ccnc(N)c12` [Example 55, 4-{8-amino-3-[(2R,5S)-5-methyl-4-oxetan-3-ylmorpholin-2-yl]imidazo[1,5-a]pyrazin-1-yl}-3-methoxy-N-[4-(trifluoromethyl)pyridin-2-yl]benzamide], the negative-log IC50 (pIC50) in experiment [1] is 5.69; in experiment [2] it was 8.59.

With `COc1cc(C(=O)Nc2cc(C(F)(F)F)ccn2)ccc1-c1nc([C@H]2CN(C3CN(C(=O)C4CC4)C3)[C@@H](C)CO2)n2ccnc(N)c12` [Example 29, 4-(8-amino-3-{(2R,5S)-4-[1-(cyclopropylcarbonyl)azetidin-3-yl]-5-methylmorpholin-2-yl}imidazo[1,5-a]pyrazin-1-yl)-3-methoxy-N-[4-(trifluoromethyl)pyridin-2-yl]benzamide], the negative-log IC50 (pIC50) in experiment [1] was 5.41; in experiment [2] it was 8.46.

For the compound `CC(C)C(=O)N1C[C@H](c2nc(-c3ccc(C(=O)Nc4cc(C(F)(F)F)ccn4)cc3F)c3c(N)nccn23)OC[C@@H]1C` [Example 87, 4-{8-amino-3-[(2R,5S)-5-methyl-4-(2-methylpropanoyl)morpholin-2-yl]imidazo[1,5-a]pyrazin-1-yl}-3-fluoro-N-[4-(trifluoromethyl)pyridin-2-yl]benzamide], the pIC50 in experiment [1] is 6.85; in experiment [2] it was 9.13.

Turning to `CC(=O)N1C[C@H](c2nc(-c3ccc(C(=O)Nc4cc(C(F)(F)F)ccn4)cc3F)c3c(N)nccn23)OC[C@H]1C` [Example 71, 4-{3-[(2R,5R)-4-acetyl-5-methylmorpholin-2-yl]-8-aminoimidazo[1,5-a]pyrazin-1-yl}-3-fluoro-N-[4-(trifluoromethyl)pyridin-2-yl]benzamide], the negative-log IC50 (pIC50) in experiment [1] is 6.96; in experiment [2], 8.18.

Turning to `C[C@H](O)C(=O)N1C[C@H](c2nc(-c3ccc(C(=O)Nc4cc(C(F)(F)F)ccn4)cc3Cl)c3c(N)ncc(Cl)n23)OC[C@@H]1C` [Example 100, 4-(8-amino-5-chloro-3-{(2R,5S)-4-[(2S)-2-hydroxypropanoyl]-5-methylmorpholin-2-yl}imidazo[1,5-a]pyrazin-1-yl)-3-chloro-N-[4-(trifluoromethyl)pyridin-2-yl]benzamide], the pIC50 is 6.18 in experiment [1] and 9.19 in experiment [2].

In the case of `Nc1nccn2c1c(-c1ccc(C(=O)Nc3cc(C(F)(F)F)ccn3)cc1)nc2[C@H]1C[C@H](Nc2c(NC3CC3)c(=O)c2=O)C1` [Example 114, 4-[8-amino-3-(trans-3-{[2-(cyclopropylamino)-3,4-dioxocyclobut-1-en-1-yl]amino}cyclobutyl)imidazo[1,5-a]pyrazin-1-yl]-N-[4-(trifluoromethyl)pyridin-2-yl]benzamide], the pIC50 in experiment [1] is 6.03; in experiment [2], 9.49.

Take `CCOc1cc(C(=O)Nc2cc(C(F)(F)F)ccn2)ccc1-c1nc([C@H]2CN(C(=O)[C@H](C)O)[C@@H](C)CO2)n2ccnc(N)c12` [Example 98, 4-(8-amino-3-{(2R,5S)-4-[(2S)-2-hydroxypropanoyl]-5-methylmorpholin-2-yl}imidazo[1,5-a]pyrazin-1-yl)-3-ethoxy-N-[4-(trifluoromethyl)pyridin-2-yl]benzamide]: the pIC50 in experiment [1] is 5.79; in experiment [2], 8.76.

As for `C[C@H](O)C(=O)N1C[C@H](c2nc(-c3ccc(C(=O)Nc4cc(C(F)(F)F)ccn4)cc3F)c3c(N)nccn23)OC[C@H]1C` [Example 68, 4-(8-amino-3-{(2R,5R)-4-[(2S)-2-hydroxypropanoyl]-5-methylmorpholin-2-yl}imidazo[1,5-a]pyrazin-1-yl)-3-fluoro-N-[4-(trifluoromethyl)pyridin-2-yl]benzamide], the negative-log IC50 (pIC50) was 7.12 in experiment [1] and 8.52 in experiment [2].

`COc1cc(C(=O)Nc2cc(C(F)(F)F)ccn2)ccc1-c1nc([C@H]2CN(C(=O)[C@@H](C)O)[C@@H](C)CO2)n2c(Cl)cnc(N)c12` [Example 14, 4-(8-amino-5-chloro-3-{(2R,5S)-4-[(2R)-2-hydroxypropanoyl]-5-methylmorpholin-2-yl}imidazo[1,5-a]pyrazin-1-yl)-3-methoxy-N-[4-(trifluoromethyl)pyridin-2-yl]benzamide]: the figures for the negative-log IC50 (pIC50) in experiment [1] and in experiment [2] were 5.77 and 8.69, respectively.

On to `COc1cc(C(=O)Nc2cc(C(F)(F)F)ccn2)ccc1-c1nc([C@H]2CN(C(=O)C(C)C)[C@@H](C)CO2)n2c(Cl)cnc(N)c12` [Example 15, 4-{8-amino-5-chloro-3-[(2R,5S)-5-methyl-4-(2-methylpropanoyl)morpholin-2-yl]imidazo[1,5-a]pyrazin-1-yl}-3-methoxy-N-[4-(trifluoromethyl)pyridin-2-yl]benzamide], for which the pIC50 is 5.49 in experiment [1] and 8.38 in experiment [2].

For `CCOc1cc(C(=O)Nc2cc(C(F)(F)F)ccn2)ccc1-c1nc([C@H]2CN(C(=O)CCOC)[C@@H](C)CO2)n2c(Cl)cnc(N)c12` [Example 104, 4-{8-amino-5-chloro-3-[(2R,5S)-4-(3-methoxypropanoyl)-5-methylmorpholin-2-yl]imidazo[1,5-a]pyrazin-1-yl}-3-ethoxy-N-[4-(trifluoromethyl)pyridin-2-yl]benzamide], the pIC50 is 5.21 in experiment [1] and 8.88 in experiment [2].

Take `COc1cc(C(=O)Nc2cc(C(F)(F)F)ccn2)ccc1-c1nc([C@H]2CN(Cc3cnn(C)c3)[C@@H](C)CO2)n2ccnc(N)c12` [Example 54, 4-(8-amino-3-{(2R,5S)-5-methyl-4-[(1-methyl-1H-pyrazol-4-yl)methyl]morpholin-2-yl}imidazo[1,5-a]pyrazin-1-yl)-3-methoxy-N-[4-(trifluoromethyl)pyridin-2-yl]benzamide]: the negative-log IC50 (pIC50) in experiment [1] was 5.78; in experiment [2] it was 8.64.

Values taken from patent publication US20170349593A1, “BTK INHIBITORS” (MERCK SHARP & DOHME CORP., priority 2014, published 2017).
